From US11498923B2 (Merck Sharp & Dohme Corp., priority 2017, dated 2022) come the findings set out here.

Molecules are shown by their SMILES.

The first assay deals with T1, human A2a receptor (Homo sapiens, UniProt P29274).
T1 construct: purchased Perkin-Elmer RBHA2AM400UA; host or cells: HEK293 cells, used as a membrane preparation
T1 sequence (P29274 whole entry): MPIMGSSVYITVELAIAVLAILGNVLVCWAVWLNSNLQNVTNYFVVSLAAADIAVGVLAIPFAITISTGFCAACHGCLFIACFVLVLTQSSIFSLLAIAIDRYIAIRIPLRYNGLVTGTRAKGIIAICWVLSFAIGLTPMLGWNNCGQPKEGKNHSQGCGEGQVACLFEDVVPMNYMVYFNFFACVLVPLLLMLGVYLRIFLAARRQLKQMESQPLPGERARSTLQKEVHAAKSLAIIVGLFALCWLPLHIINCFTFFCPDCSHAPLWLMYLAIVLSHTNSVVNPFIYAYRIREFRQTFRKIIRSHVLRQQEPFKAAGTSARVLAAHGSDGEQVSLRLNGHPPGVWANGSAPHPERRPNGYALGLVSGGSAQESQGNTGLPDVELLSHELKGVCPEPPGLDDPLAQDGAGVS
The assay can be described thus: A2a receptor competition binding assay (Scintillation Proximity). To be noted: membranes from HEK293 cells expressing human A2a receptor; 0.5 nM tritiated ligand; Cheng-Prusoff; read-out: A2a Ki. The gist of the method:
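HEK293 membranes bearing the human receptor, pretreated with adenosine deaminase, competed against 0.5 nM tritiated pyrazolotriazolopyrimidine antagonist with compound at 3000–0.15 nM final in DPBS plus 10 mM MgCl2. SPA bead readout after 1 h at room temperature; Ki from EC50 via Cheng-Prusoff.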
Background: In a scintillation proximity assay essentially only radioactivity close to the scintillant gives light.
On to `CS(=O)(=O)Nc1nc2c(F)cccc2c2nc(-c3ccccc3CN3CCN(c4ccccn4)CC3)cn12` [Ex-108, N-(7-fluoro-2-(2-((4-(pyridin-2-yl)piperazin-1-yl)methyl)-phenyl)-imidazo[1,2-c]-quinazolin-5-yl)-methanesulfonamide], for which the Ki came to 0.13 µM.

With `CN(Cc1cccc2cccnc12)C(=O)c1cn2c(N)nc3c(F)cccc3c2n1` [Ex-162, 5-amino-7-fluoro-N-methyl-N-(quinolin-8-ylmethyl)imidazo[1,2-c]quinazoline-2-carboxamide], the Ki was found to be 0.0297 µM.

`COCCOc1ccc(N2CCN(c3ccccc3CNC(=O)c3cn4c(N)nc5c(F)cccc5c4n3)CC2)cc1` [Ex-253, 5-amino-7-fluoro-N-(2-(4-(4-(2-methoxyethoxy)phenyl)piperazin-1-yl)benzyl)imidazo[1,2-c]quinazoline-2-carboxamide]: the Ki was determined as 0.0037 µM.

With `COc1cccc2c1nc(N)n1cc(Cc3cccnc3N3CCOCC3)nc21` [Ex-43, 7-methoxy-2-((2-morpholinopyridin-3-yl)methyl)imidazo[1,2-c]quinazolin-5-amine], the Ki is 0.0052 µM.

As for `Nc1nc2c(F)cccc2c2nc(C(=O)NC3CCNc4ccccc43)cn12` (stereo not drawn) [Ex-248, 5-amino-7-fluoro-N-(1,2,3,4-tetrahydroquinolin-4-yl)imidazo[1,2-c]quinazoline-2-carboxamide], the Ki amounted to 0.009 µM.

For `CCN1CCC2(CCN(C(=O)c3cn4c(N)nc5c(F)cccc5c4n3)C2)C1` (stereo not drawn) [Ex-280, (5-amino-7-fluoroimidazo[1,2-c]quinazolin-2-yl)(7-ethyl-2,7-diazaspiro[4.4]nonan-2-yl)methanone], the Ki worked out at 0.1 µM.

In the case of `Cc1ccc(CN2CCC(Cc3cn4c(N)nc5c(F)cccc5c4n3)CC2)cc1` [Ex-312, 7-fluoro-2-((1-(4-methylbenzyl)piperi-din-4-yl)methyl)-imidazo-[1,2-c]-quinazolin-5-amine], the Ki came out at 0.048 µM.

For `Nc1nc2c(F)cccc2c2nc(CC3CCN(C(=O)c4cccc(Br)n4)CC3)cn12` [Ex-322, (4-((5-amino-7-fluoroimidazo[1,2-c]quinazolin-2-yl)-methyl)piperidin-1-yl)(6-bromopyridin-2-yl)methanone], the Ki was determined as 0.026 µM.

For `COc1cccc2c1nc(N)n1cc(Cc3ccccc3CN3CCOCC3)nc21` [Ex-26, 7-methoxy-2-(2-(morpholinomethyl)benzyl)imidazo[1,2-c]quinazolin-5-amine], the Ki stood at 0.0004 µM.

As to `Nc1nc2c(F)cccc2c2nc(Cc3ccccc3CN3CCOCC3)cn12` [Ex-35, 7-fluoro-2-(2-(morpholinomethyl)benzyl)imidazo[1,2-c]quinazolin-5-amine], the Ki came to 0.006 µM.

As for `COc1ccc2c(c1)nc(N)n1cc(Cc3ccccc3)nc21` [Ex-03, 2-benzyl-8-methoxyimidazo[1,2-c]quinazolin-5-amine], the Ki stood at 0.0026 µM.

In the case of `COc1cccc2c1nc(N)n1cc(C(=O)N3CCO[C@H](C)C3)nc21` [Ex-181, (R)-(5-amino-7-methoxyimidazo[1,2-c]quinazolin-2-yl)(2-methylmorpholino) methanone], the Ki was 0.11 µM.

On to `Nc1nc2c(Br)cccc2c2nc(CNCc3cccnc3)cn12` [Ex-141, 7-bromo-2-(((pyridin-3-ylmethyl)amino)methyl) imidazo[1,2-c]quinazolin-5-amine], for which the Ki came to 0.0095 µM.

On to `COc1cccc2c1nc(N)n1cc(C(=O)N3CCOCC3CC(C)C)nc21` (stereo not drawn) [Ex-186, (5-amino-7-methoxyimidazo[1,2-c]quinazolin-2-yl)(3-isobutylmorpholino) methanone], for which the Ki is 0.0538 µM.

With `COc1cccc2c1nc(N)n1cc(CNCc3ccccc3)nc21` [Ex-143, 2-((benzylamino)-methyl)-7-methoxy-imidazo[1,2-c]-quinazolin-5-amine], the Ki was 0.004 µM.

On to `Nc1nc2c(F)cccc2c2nc(CC3CCN(C(=O)OCc4ccccc4)CC3)cn12` [Ex-316, benzyl 4-((5-amino-7-fluoroimidazo[1,2-c]quinazolin-2-yl)-methyl)piperidine-1-carboxylate], for which the Ki was determined as 0.03 µM.

In the case of `COc1cccc2c1nc(N)n1cc(Cc3cccc4c3CCN(C(=O)CCC(F)(F)F)C4)nc21` [Ex-60, 1-(5-((5-amino-7-methoxyimidazo[1,2-c]quinazolin-2-yl)methyl)-3,4-dihydroisoquinolin-2(1H)-yl)-4,4,4-trifluorobutan-1-one], the Ki was determined as 0.002 µM.

On to `Nc1nc2c(F)cccc2c2nc(Cn3cc(-c4ccc(OC(F)(F)F)cc4)nn3)cn12` [Ex-95, 7-fluoro-2-((4-(4-(trifluoromethoxy)-phenyl)-1H-1,2,3-triazol-1-yl)methyl)-imidazo[1,2-c]-quinazolin-5-amine], for which the Ki came out at 0.0068 µM.

On to `Nc1nc2c(F)cccc2c2nc(C(=O)N3CCc4cccc(CN5CCN(c6ccccn6)CC5)c4C3)cn12` [Ex-251, (5-amino-7-fluoroimidazo[1,2-c]quinazolin-2-yl)(8-((4-(pyridin-2-yl)piperazin-1-yl)methyl)-3,4-dihydroisoquinolin-2(1H)-yl)methanone], for which the Ki turned out to be 0.091 µM.

In the case of `CCN1CCC(Cc2cn3c(N)nc4c(F)cccc4c3n2)CC1` [Ex-307, 2-((1-ethyl-piperidin-4-yl)methyl)-7-fluoro-imidazo[1,2-c]quina-zolin-5-amine], the Ki amounted to 0.12 µM.

Consider `Nc1nc2c(F)cccc2c2nc(CC3CCN(c4ncc(F)cn4)CC3)cn12` [Ex-300, 7-fluoro-2-((1-(5-fluoropyrimidin-2-yl)piperidin-4-yl)methyl)imidazo[1,2-c]quinazolin-5-amine], for which the Ki stood at 0.012 µM.

Regarding `CC(C)(C)OC(=O)N1CCC2(CCN(C(=O)c3cn4c(N)nc5c(F)cccc5c4n3)CC2)C1` [Ex-262, tert-butyl 8-(5-amino-7-fluoroimidazo[1,2-c]quinazoline-2-carbonyl)-2,8-diazaspiro[4.5]decane-2-carboxylate], the Ki amounted to 0.053 µM.

As to `CC(=O)N1CCc2ccc(Cc3cn4c(N)nc5c(F)cccc5c4n3)cc2C1` [Ex-48, 1-(7-((5-amino-7-fluoroimidazo[1,2-c]quinazolin-2-yl)methyl)-3,4-dihydroisoquinolin-2(1H)-yl)ethan-1-one], the Ki came to 0.003 µM.

As to `Nc1nc2c(F)cccc2c2nc(Cc3cccc(-c4ccc5nonc5c4)c3)cn12` [Ex-77, 2-(3-(benzo[c][1,2,5]oxadiazol-5-yl)benzyl)-7-fluoroimidazo[1,2-c]quinazolin-5-amine], the Ki is 0.012 µM.

With `COc1cccc2c1nc(N)n1cc(C(=O)N3CCCC4(C3)CC(C)(C)OC4=O)nc21` (stereo not drawn) [Ex-229, 7-(5-amino-7-methoxyimidazo[1,2-c]quinazoline-2-carbonyl)-3,3-dimethyl-2-oxa-7-azaspiro[4.5]decan-1-one], the Ki is 0.015 µM.

Take `Nc1nc2c(F)cccc2c2nc(Cc3ccc(-c4ccc(F)cn4)cc3)cn12` [Ex-76, 7-fluoro-2-(4-(5-fluoropyridin-yl)benzyl)imidazo[1,2-c]quinazolin-5-amine]: the Ki came to 0.01 µM.

With `Nc1nc2c(F)cccc2c2nc(C(=O)NCc3cccc4cccnc34)cn12` [Ex-163, 5-amino-7-fluoro-N-(quinolin-8-ylmethyl)imidazo[1,2-c]quinazoline-2-carboxamide], the Ki was 0.0128 µM.

For `COc1cccc2c1nc(N)n1cc(C(=O)N3CCCC(F)C3)nc21` (stereo not drawn) [Ex-171, (5-amino-7-methoxyimidazo[1,2-c]quinazolin-2-yl)(3-fluoropiperidin-1-yl)methanone], the Ki came out at 0.02 µM.

On to `Nc1nc2c(F)cccc2c2nc(CN3CCCc4cc(Br)ccc43)cn12` [Ex-125, 2-((6-bromo-3,4-dihydroquinolin-1(2H)-yl)methyl)-7-fluoroimidazo[1,2-c]quinazolin-5-amine], for which the Ki came to 0.0081 µM.

With `Nc1nc2c(F)cccc2c2nc(C(=O)NCc3ccccn3)cn12` [Ex-298, 5-amino-7-fluoro-N-(pyridin-2-ylmethyl)imidazo[1,2-c]quinazoline-2-carboxamide], the Ki worked out at 0.014 µM.

In the case of `Nc1nc2c(F)cccc2c2nc(CN3CCOCC3)cn12` [Ex-115, 7-fluoro-2-(morpholinomethyl) imidazo[1,2-c] quinazolin-5-amine], the Ki was 0.38 µM.

For `COc1cccc2c1nc(N)n1cc(C(=O)N3CCC[C@@H]3C(F)(F)F)nc21` [Ex-217, (R)-(5-amino-7-methoxyimidazo[1,2-c]quinazolin-2-yl)(2-(trifluoromethyl)pyrrolidin-1-yl)methanone], the Ki is 0.0078 µM.

For the compound `Cn1cc(-c2ccc(F)c3nc(N)n4cc(Cc5ccccc5)nc4c23)ccc1=O` [Ex-61, 5-(5-amino-2-benzyl-7-fluoroimidazo[1,2-c]quinazolin-10-yl)-1-methylpyridin-2(1H)-one], the Ki is 0.027 µM.

In the case of `COc1cccc2c1nc(N)n1cc(C(=O)N3CC(C)CC(C)C3)nc21` (stereo not drawn) [Ex-167, (5-amino-7-methoxyimidazo[1,2-c]quinazolin-2-yl)(3,5-dimethylpiperidin-1-yl)methanone], the Ki amounted to 0.016 µM.

In the case of `Nc1nc2c(F)cccc2c2nc(Cc3cccc4cccnc34)cn12` [Ex-32, 7-fluoro-2-(quinolin-8-ylmethyl)imidazo[1,2-c]quinazolin-5-amine], the Ki is 0.002 µM.

With `Nc1nc2ccccc2c2nc(Cc3ccccc3)cn12` [Ex-02, 2-benzylimidazo[1,2-c]quinazolin-5-amine], the Ki worked out at 0.0058 µM.

Turning to `COc1ccc(-c2cn(Cc3cn4c(N)nc5c(OC)cccc5c4n3)nn2)cc1` [Ex-93, 7-methoxy-2-((4-(4-methoxyphenyl)-1H-1,2,3-triazol-1-yl)methyl)imidazo[1,2-c]quinazolin-5-amine], the Ki is 0.0025 µM.

For `Nc1nc2c(F)cccc2c2nc(Cc3cc(F)ccc3-c3ccnc(N4CCOCC4)c3)cn12` [Ex-83], the Ki came to 0.0069 µM.

Staying with this assay, now noted: value printed in the synthesis text as 'A2a=' without quantity name; read-out: A2a.
Turning to `Nc1nc2c(F)cccc2c2nc(Cc3ccc4c(c3)CN(C(=O)c3ccccc3)C4)cn12` [L-005052550, (5-((5-amino-7-fluoroimidazo[1,2-c]quinazolin-2-yl)methyl)isoindolin-2-yl)(phenyl)methanone], the Ki is 0.0084 µM.
